According to patent publication US20160016951A1 (Merck Patent GmbH, priority 2014, published 2016):

What follows are molecules tested against T1, CDK8 (CDK8/CycC) (Homo sapiens, UniProt P49336) (assay: FRET based Lanthascreen binding competition assay). Conditions: 5 nM CDK8/CycC, 10 nM Alexa647-Tracer, 1% DMSO, 60 min at RT; read-out: IC50 CDK8 binding.
T1 construct: purchased Invitrogen PV4402
Protocol: FRET based Lanthascreen binding competition assay: A dye-labeled ATP competitive probe served as a FRET acceptor upon binding to CDK8 labeled with a strepavidin —Eu-chelate (via abiotinylated anti His antibody). […] In case this probe was competed by an inhibitor as such a signal cannot be generated any more. The CDK8 used for this assay was a protein co-expressed with CycC.
The assay procedure for an assay in a 1536 well plate was performed according to the following: 2 μL CDK8/biotin-anti-His Ab/SA-Eu mix in Assay buffer were pipetted into the wells of a micro plate.
1 μL compound in 20 mM Hepes buffer/5% DMSO was added. The plate was shaken for 30 sec and incubated for 20 min at RT. 2 μL Alexa647-probe in assay buffer were added. The plate was shaken for 30 sec again and incubated for 60 min at RT in the dark. Then the plate was read out on a Perkin Elmer Envision (mode LANCE/TRF, excitation 340 nm emission 650 nm).

T1 sequence (P49336 whole entry): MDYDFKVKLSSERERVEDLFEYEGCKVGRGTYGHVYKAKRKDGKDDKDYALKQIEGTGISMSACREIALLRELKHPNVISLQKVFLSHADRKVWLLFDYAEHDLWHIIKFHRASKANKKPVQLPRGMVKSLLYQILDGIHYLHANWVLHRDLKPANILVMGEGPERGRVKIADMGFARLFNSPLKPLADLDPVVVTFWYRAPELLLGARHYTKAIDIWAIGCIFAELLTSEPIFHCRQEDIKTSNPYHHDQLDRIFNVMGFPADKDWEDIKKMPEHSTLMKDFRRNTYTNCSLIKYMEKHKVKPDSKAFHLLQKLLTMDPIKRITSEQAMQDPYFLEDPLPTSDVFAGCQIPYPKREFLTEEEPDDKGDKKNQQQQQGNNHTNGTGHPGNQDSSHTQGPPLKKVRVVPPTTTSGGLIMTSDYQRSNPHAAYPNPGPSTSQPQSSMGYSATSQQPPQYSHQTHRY
T1 sequence (P24863 whole entry partner): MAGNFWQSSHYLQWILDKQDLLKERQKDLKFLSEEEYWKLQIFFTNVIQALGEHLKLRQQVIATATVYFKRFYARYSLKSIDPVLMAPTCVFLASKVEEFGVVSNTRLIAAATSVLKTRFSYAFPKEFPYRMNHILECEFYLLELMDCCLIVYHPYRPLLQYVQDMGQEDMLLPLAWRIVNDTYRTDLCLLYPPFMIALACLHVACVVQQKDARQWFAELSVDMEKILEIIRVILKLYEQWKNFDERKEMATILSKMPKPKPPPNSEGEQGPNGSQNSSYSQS

| Compound | IC50 [nM] |
| --- | --- |
| Cn1cc(-c2ccc(-c3cncc4ccc(NS(C)(=O)=O)nc34)cc2)cn1 [Compound 2, N-(8-(4-(1-Methyl-1H-pyrazol-4-yl)phenyl)-1,6-naphthyridin-2-yl)methanesulfonamide] | < 10 |
| CN1c2ccc(-c3cncc4ccc(C(=O)NC5(C)CC5)nc34)cc2CS1(=O)=O [Compound 8, 8-(1-Methyl-2,2-dioxo-2,3-dihydro-1H-benzo[c]isothiazol-5-yl)-[1,6]naphthyridine-2-carboxylic acid (1-methyl-cyclopropyl)-amide] | < 10 |
| CC(=O)NC(=O)c1ccc2cncc(-c3ccc(-c4cnn(C)c4)cc3)c2n1 [Compound 9, 8-[4-(1-Methyl-1H-pyrazol-4-yl)-phenyl]-[1,6]naphthyridine-2-carboxylic acid acetyl-amide] | < 10 |
| CNC(=O)c1nc2c(-c3ccc4c(c3)CS(=O)(=O)N4C)cncc2cc1C [Compound 12, 3-Methyl-8-(1-methyl-2,2-dioxo-2,3-dihydro-1H-benzo[c]isothiazol-5-yl)-[1,6]naphthyridine-2-carboxylic acid methylamide] | < 10 |
| Cn1cc(-c2ccc(-c3cncc4ccc(C(N)=O)nc34)c(F)c2)cn1 [Compound 14, 8-(2-fluoro-4-(1-methyl-1H-pyrazol-4-yl)phenyl)-1,6-naphthyridine-2-carboxamide] | < 10 |
| CNC(=O)c1ccc2cncc(-c3ccc4c(c3)N(C)C(=O)C4)c2n1 [Compound 15, 8-(1-methyl-2-oxo-2,3-dihydro-1H-indol-6-yl)-[1,6]naphthyridine-2-carboxylic acid methylamide] | < 10 |
| CN1c2ccc(-c3cncc4ccc(C(=O)NCCN)nc34)cc2CS1(=O)=O [Compound 16, 8-(1-Methyl-2,2-dioxo-2,3-dihydro-1H-benzo[c]isothiazol-5-yl)-[1,6]naphthyridine-2-carboxylic acid (2-amino-ethyl)-amide] | < 10 |
| CNC(=O)c1ccc2cncc(-c3ccc(-c4cnn(C)c4)cc3F)c2n1 [Compound 17, 8-(2-fluoro-4-(1-methyl-1H-pyrazol-4-yl)phenyl)-N-methyl-1,6-naphthyridine-2-carboxamide] | < 10 |
| CN1c2ccc(-c3cncc4ccc(C(=O)N5CCNCC5)nc34)cc2CS1(=O)=O [Compound 18, [8-(1-Methyl-2,2-dioxo-2,3-dihydro-1H-benzo[c]isothiazol-5-yl)-[1,6]naphthyridin-2-yl]-piperazin-1-yl-methanone] | < 10 |
| Cc1cc(-c2cnn(C)c2)ccc1-c1cncc2ccc(C(N)=O)nc12 [Compound 19, 8-(2-methyl-4-(1-methyl-1H-pyrazol-4-yl)phenyl)-1,6-naphthyridine-2-carboxamide] | < 10 |
| CN1c2ccc(-c3cncc4ccc(C(=O)NC5CC5)nc34)cc2CS1(=O)=O [Compound 21, 8-(1-Methyl-2,2-dioxo-2,3-dihydro-1H-benzo[c]isothiazol-5-yl)-[1,6]naphthyridine-2-carboxylic acid cyclopropylamide] | < 10 |
| COC1CN(C(=O)c2ccc3cncc(-c4ccc5c(cnn5C)c4)c3n2)C1 [Compound 22, (3-methoxyazetidin-1-yl)(8-(1-methyl-1H-indazol-5-yl)-1,6-naphthyridin-2-yl)methanone] | < 10 |
| C[C@@H](NC(=O)c1ccc2cncc(-c3ccc(-c4cnn(C)c4)cc3)c2n1)c1ccccc1 [Compound 24, (R)-8-(4-(1-methyl-1H-pyrazol-4-yl)phenyl)-N-(1-phenylethyl)-1,6-naphthyridine-2-carboxamide] | < 10 |
| C[C@H](NC(=O)c1ccc2cncc(-c3ccc(-c4cnn(C)c4)cc3)c2n1)c1ccccc1 [Compound 27, (S)-8-(4-(1-methyl-1H-pyrazol-4-yl)phenyl)-N-(1-phenylethyl)-1,6-naphthyridine-2-carboxamide] | < 10 |
| Cc1cc2cncc(-c3ccc4c(c3)CS(=O)(=O)N4C)c2nc1C(=O)NC1CC1 [Compound 28, 3-Methyl-8-(1-methyl-2,2-dioxo-2,3-dihydro-1H-benzo[c]isothiazol-5-yl)-[1,6]naphthyridine-2-carboxylic acid cyclopropylamide] | < 10 |
| O=C(c1ccc2cncc(-c3ccc4c(c3)CS(=O)(=O)N4)c2n1)N1CCC(F)(F)C1 [Compound 30, (3,3-difluoro-pyrrolidin-1-yl)-[8-(2,2-dioxo-2,3-dihydro-1H-benzo[c]isothiazol-5-yl)-[1,6]naphthyridin-2-yl]-methanone] | < 10 |
| COC1CN(C(=O)c2ccc3cncc(-c4ccc(-c5cnn(CC(C)(C)O)c5)cc4)c3n2)C1 [Compound 31, (8-(4-(1-(2-hydroxy-2-methylpropyl)-1H-pyrazol-4-yl)phenyl)-1,6-naphthyridin-2-yl)(3-methoxyazetidin-1-yl)methanone] | < 10 |

| Compound | IC50 [nM] |
| --- | --- |
| CNC(=O)c1ccc2c(N)ncc(-c3ccc4c(c3)CS(=O)(=O)N4C)c2n1 [Compound 32, 5-Amino-8-(1-methyl-2,2-dioxo-2,3-dihydro-1H-benzo[c]isothiazol-5-yl)-[1,6]naphthyridine-2-carboxylic acid methylamide] | < 10 |
| COC1CN(C(=O)c2ccc3cncc(-c4ccc5nn(CC(C)(C)O)cc5c4)c3n2)C1 [Compound 33, (8-(2-(2-hydroxy-2-methylpropyl)-2H-indazol-5-yl)-1,6-naphthyridin-2-yl)(3-methoxyazetidin-1-yl)methanone] | < 10 |
| O=C(c1ccc2cncc(Br)c2n1)N1CCC[C@H]1c1ccc(Cl)cc1 [Compound 34, (S)-(8-bromo-1,6-naphthyridin-2-yl)(2-(4-chlorophenyl)pyrrolidin-1-yl)methanone] | < 10 |
| Cn1cc(-c2ccc(-c3cncc4ccc(C(=O)N5CCC(F)(F)CC5)nc34)cc2)cn1 [Compound 35, (4,4-difluoropiperidin-1-yl)(8-(4-(1-methyl-1H-pyrazol-4-yl)phenyl)-1,6-naphthyridin-2-yl)methanone] | < 10 |
| Cc1cncc2ccc(C(=O)N[C@H](C)c3ccccc3)nc12 [Compound 36, (R)-8-methyl-N-(1-phenylethyl)-1,6-naphthyridine-2-carboxamide] | < 10 |
| O=C(c1ccc2cnccc2n1)N1CCC[C@H]1c1ccc(Cl)cc1 [Compound 37, (S)-(2-(4-chlorophenyl)pyrrolidin-1-yl)(1,6-naphthyridin-2-yl)methanone] | < 10 |
| CC(=O)NCc1ccc2cncc(-c3ccc4c(c3)CS(=O)(=O)N4C)c2n1 [Compound 38, N-[8-(1-Methyl-2,2-dioxo-2,3-dihydro-1H-benzo[c]isothiazol-5-yl)-[1,6]naphthyridin-2-ylmethyl]-acetamide] | 10 to 100 |
| CNC(=O)c1ccc2c(N)ncc(-c3ccc(-c4cnn(C)c4)cc3F)c2n1 [Compound 40, 5-amino-8-(2-fluoro-4-(1-methyl-1H-pyrazol-4-yl)phenyl)-N-methyl-1,6-naphthyridine-2-carboxamide] | 10 to 100 |
| Cc1cc2cncc(-c3ccc4c(c3)CS(=O)(=O)N4C)c2nc1C(=O)N1CCC(F)(F)C1 [Compound 41, (3,3-Difluoro-pyrrolidin-1-yl)-[3-methyl-8-(1-methyl-2,2-dioxo-2,3-dihydro-1H-benzo[c]isothiazol-5-yl)-[1,6]naphthyridin-2-yl]-methanone] | 10 to 100 |
| Cn1cc(-c2ccc(-c3cncc4ccc(-c5nn[nH]n5)nc34)cc2)cn1 [Compound 42, 8-(4-(1-methyl-1H-pyrazol-4-yl)phenyl)-2-(2H-tetrazol-5-yl)-1,6-naphthyridine] | 10 to 100 |
| CNC(=O)c1ccc2cncc(-c3ccc(-c4cnn(C)c4)cc3C)c2n1 [Compound 43, N-methyl-8-(2-methyl-4-(1-methyl-1H-pyrazol-4-yl)phenyl)-1,6-naphthyridine-2-carboxamide] | 10 to 100 |
| CN(CCO)C(=O)c1ccc2cncc(-c3ccc4c(c3)CS(=O)(=O)N4)c2n1 [Compound 45, 8-(2,2-Dioxo-2,3-dihydro-1H-benzo[c]isothiazol-5-yl)-[1,6]naphthyridine-2-carboxylic acid (2-hydroxy-ethyl)-methyl-amide] | 10 to 100 |
| CN(C)C(=O)c1ccc2cncc(-c3ccc4c(c3)CS(=O)(=O)N4)c2n1 [Compound 46, 8-(2,2-Dioxo-2,3-dihydro-1H-benzo[c]isothiazol-5-yl)-[1,6]naphthyridine-2-carboxylic acid dimethylamide] | 10 to 100 |
| C[C@@H](NC(=O)c1ccc2cncc(Br)c2n1)c1ccccc1 [Compound 48, (R)-8-bromo-N-(1-phenylethyl)-1,6-naphthyridine-2-carboxamide] | 10 to 100 |
| COC1CN(C(=O)c2ccc3cncc(-c4ccc(-c5cn(C)nc5C(F)(F)F)cc4)c3n2)C1 [Compound 49, (3-methoxyazetidin-1-yl)(8-(4-(1-methyl-3-(trifluoromethyl)-1H-pyrazol-4-yl)phenyl)-1,6-naphthyridin-2-yl)methanone] | 10 to 100 |
| Nc1ncc(-c2ccc3c(c2)CS(=O)(=O)N3)c2nc(C(=O)N3CCC(F)(F)C3)ccc12 [Compound 50, (5-Amino-8-(2,2-dioxido-1,3-dihydrobenzo[c]isothiazol-5-yl)-1,6-naphthyridin-2-yl)(3,3-difluoropyrrolidin-1-yl)methanone] | 10 to 100 |
| CN1c2ccc(-c3cncc4ccc(CO)nc34)cc2CS1(=O)=O [Compound 51, [8-(1-Methyl-2,2-dioxo-2,3-dihydro-1H-benzo[c]isothiazol-5-yl)-[1,6]naphthyridin-2-yl]-methanol] | 10 to 100 |
